# Data as given in US8481546B2, “CGRP receptor antagonist” (Bristol-Myers Squibb Company, priority 2010, dated 2013).
# Read-outs that look alike come from different tables or passages of the source.
# Tests used:
# [1] = Solution state stability; type: physicochemical
# Experimental: The solution state stability of Compound I was evaluated as a function of temperature, pH, high intensity light (HIL), buffer concentration, and drug concentration.
# Succinate buffer was used for all solutions. For samples exposed to light, a photostability chamber was used in accordance with ICH guidelines (1.2 million lux hour exposure to visible light and 200 watt hour/m^2 to UV). Analyses were performed at 4, 8 and 12 weeks.
# [2] = One-week comparative intranasal irritation study in rats: toxicokinetics; conditions: male, rat, in vivo; for Cmax / Tmax / AUC(0-t) / half-life: inhaled or intranasal; for concentration at 24 h: other: intranasal instillation
# Experimental: This study was conducted to compare potential nasal irritation of Compound I to Compound III when given intranasally to male rats for 1 week. Male rats (10/group) were instilled intranasally with Compound I or Compound III solutions ([…] in 225 mM succinic acid, 0.02% benzalkonium chloride, 1.25% anhydrous dextrose, pH 5.8-6.2) once daily at a dose volume of 100 μL/nostril. Using this dosing paradigm, fixed doses of 5, 15 or 35 mg of test article were delivered daily. As a consequence, dosages normalized to body weight decreased with time as the rats grew. One control group was given succinate vehicle and a sham control group was given saline by intranasal instillation. Parameters evaluated included clinical observations, body weight, food consumption, toxicokinetics, and histological evaluation of nasal tissues.
# [3] = Aqueous solubility, pH dependence; type: physicochemical
# Experimental: Solid free base was mixed with carbonate, and ethanolamine buffers. The pH of a third sample was adjusted with HCl. The solids were mixed with the vehicles using a mixer that was enclosed within an incubator set to 25 C. After equilibration, samples of the supernatant were withdrawn, diluted as appropriate, and analyzed by HPLC.
# Crystalline Compound I converted to a gelatinous phase during measurement of the pH solubility profile. The absence of a crystalline phase in equilibrium with water prevents a confident assessment of the pH range in which Compound I can be formulated as a thermodynamically stable solution. Efforts to generate a crystalline free base form of Compound I that can be equilibrated in water are ongoing.
# [4] = Sample A: pH 4, 40 C, 0.1 mg/ml drug, 0.05 M succinate buffer
# [5] = Sample B: pH 5, 25 C, 0.1 mg/ml drug, 0.05 M succinate buffer
# [6] = Sample C: pH 5, 25 C/light, 0.1 mg/ml drug, 0.05 M succinate buffer
# [7] = Sample D: pH 5, 60 C, 0.1 mg/ml drug, 0.05 M succinate buffer
# [8] = Sample E: pH 5, 40 C, 0.1 mg/ml drug, 0.05 M succinate buffer
# [9] = Sample F: pH 6, 40 C, 0.1 mg/ml drug, 0.05 M succinate buffer
# [10] = Sample G: pH 4, 40 C, 40 mg/ml drug, 0.05 M succinate buffer
# [11] = Sample H: pH 5, 40 C, 40 mg/ml drug, 0.05 M succinate buffer
# [12] = Sample I: pH 6, 40 C, 40 mg/ml drug, 0.05 M succinate buffer
# [13] = Sample J: pH 5, 40 C, 0.1 mg/ml drug, 0.01 M succinate buffer
# [14] = 5 mg, intranasal 5 mg (0.357 mg/cm^2) once daily, Day 0
# [15] = 5 mg, intranasal 5 mg (0.357 mg/cm^2) once daily, Day 6
# [16] = 15 mg, intranasal 15 mg (1.07 mg/cm^2) once daily, Day 0
# [17] = 15 mg, intranasal 15 mg (1.07 mg/cm^2) once daily, Day 6
# [18] = 35 mg, intranasal 35 mg (2.50 mg/cm^2) once daily, Day 0
# [19] = 35 mg, intranasal 35 mg (2.50 mg/cm^2) once daily, Day 6
compound,measurement,setting,value
"Cc1cc(C[C@@H](NC(=O)N2CCC(c3cc4ccccc4[nH]c3=O)CC2)C(=O)N2CCN(C3CCN(C)CC3)CC2)cc2cn[nH]c12 [Compound I, (R)—N-(3-(7-methyl-1H-indazol-5-yl)-1-(4-(1-methylpiperidin-4-yl)piperazin-1-yl)-1-oxopropan-2-yl)-4-(2-oxo-1,2-dihydroquinolin-3-yl)piperidine-1-carboxamide]",Area percent of Deg A at twelve weeks,[1]; [4],2.0 area percent
same,Area percent of Deg C at twelve weeks,[1]; [4],10.5 area percent
same,Area percent of Deg A at twelve weeks,[1]; [5],.5 area percent
same,Area percent of Deg B at twelve weeks,[1]; [5],0.1 area percent
same,Area percent of Deg A at twelve weeks,[1]; [6],16.9 area percent
same,Area percent of Deg B at twelve weeks,[1]; [6],2.9 area percent
same,Area percent of Deg C at twelve weeks,[1]; [6],2.8 area percent
same,Area percent of Deg D at twelve weeks,[1]; [6],5.2 area percent
same,Area percent of Deg E at twelve weeks,[1]; [6],1.0 area percent
same,Area percent of Deg F at twelve weeks,[1]; [6],7.7 area percent
same,Area percent of Deg I at twelve weeks,[1]; [6],5.7 area percent
same,Area percent of Deg A at twelve weeks,[1]; [7],1.2 area percent
same,Area percent of Deg C at twelve weeks,[1]; [7],55.0 area percent
same,Area percent of Deg A at twelve weeks,[1]; [8],1.9 area percent
same,Area percent of Deg B at twelve weeks,[1]; [8],0.2 area percent
same,Area percent of Deg E at twelve weeks,[1]; [8],.1 area percent
same,Area percent of Deg A at twelve weeks,[1]; [9],.4 area percent
same,Area percent of Deg B at twelve weeks,[1]; [9],0.1 area percent
same,Area percent of Deg E at twelve weeks,[1]; [9],.1 area percent
same,Area percent of Deg A at twelve weeks,[1]; [10],4.9 area percent
same,Area percent of Deg E at twelve weeks,[1]; [10],3.5 area percent
same,Area percent of Deg G at twelve weeks,[1]; [10],0.1 area percent
same,Area percent of Deg H at twelve weeks,[1]; [10],.1 area percent
same,Area percent of Deg J at twelve weeks,[1]; [10],0.1 area percent
same,Area percent of Deg A at twelve weeks,[1]; [11],1.2 area percent
same,Area percent of Deg B at twelve weeks,[1]; [11],0.1 area percent
same,Area percent of Deg E at twelve weeks,[1]; [11],0.0 area percent
same,Area percent of Deg G at twelve weeks,[1]; [11],0.1 area percent
same,Area percent of Deg J at twelve weeks,[1]; [11],0.0 area percent
same,Area percent of Deg A at twelve weeks,[1]; [12],.2 area percent
same,Area percent of Deg B at twelve weeks,[1]; [12],0.1 area percent
same,Area percent of Deg C at twelve weeks,[1]; [12],0.0 area percent
same,Area percent of Deg E at twelve weeks,[1]; [12],0.0 area percent
same,Area percent of Deg G at twelve weeks,[1]; [12],0.1 area percent
same,Area percent of Deg J at twelve weeks,[1]; [12],0.1 area percent
same,Area percent of Deg A at twelve weeks,[1]; [13],1.1 area percent
same,Area percent of Deg B at twelve weeks,[1]; [13],0.1 area percent
same,Area percent of Deg E at twelve weeks,[1]; [13],.1 area percent
same,Area percent of Deg H at twelve weeks,[1]; [13],0.5 area percent
same,degradation after 12 weeks at 40 C,"[1]; condition I in Table 2: pH 6, 40 C, 40 mg/ml drug, 0.05 M buffer",0.3%
same,Cmax,[2]; [14],330 nM
same,Tmax,[2]; [14],0.5 h
same,AUC(0-t),"[2]; 5 mg, intranasal 5 mg (0.357 mg/cm^2) once daily, Day 0, read-out: Composite AUC0-24 h",1.6 µM·h
same,half-life,"[2]; 5 mg, intranasal 5 mg (0.357 mg/cm^2) once daily, Day 0, read-out: Mean T1/2 (converted)",7.1 h
same,Cmax,[2]; [15],660 nM
same,Tmax,[2]; [15],1 h
same,AUC(0-t),"[2]; 5 mg, intranasal 5 mg (0.357 mg/cm^2) once daily, Day 6, read-out: Composite AUC0-24 h",2.6 µM·h
same,half-life,"[2]; 5 mg, intranasal 5 mg (0.357 mg/cm^2) once daily, Day 6, read-out: Mean T1/2 (converted)",5.6 h
same,Cmax,[2]; [16],2200 nM
same,Tmax,[2]; [16],1 h
same,AUC(0-t),"[2]; 15 mg, intranasal 15 mg (1.07 mg/cm^2) once daily, Day 0, read-out: Composite AUC0-24 h",4.6 µM·h
same,half-life,"[2]; 15 mg, intranasal 15 mg (1.07 mg/cm^2) once daily, Day 0, read-out: Mean T1/2 (converted)",5.1 h
same,Cmax,[2]; [17],830 nM
same,Tmax,[2]; [17],0.5 h
same,AUC(0-t),"[2]; 15 mg, intranasal 15 mg (1.07 mg/cm^2) once daily, Day 6, read-out: Composite AUC0-24 h",5.2 µM·h
same,half-life,"[2]; 15 mg, intranasal 15 mg (1.07 mg/cm^2) once daily, Day 6, read-out: Mean T1/2 (converted)",6.7 h
same,Cmax,[2]; [18],1500 nM
same,Tmax,[2]; [18],2 h
same,AUC(0-t),"[2]; 35 mg, intranasal 35 mg (2.50 mg/cm^2) once daily, Day 0, read-out: Composite AUC0-24 h",7.9 µM·h
same,Cmax,[2]; [19],1200 nM
same,Tmax,[2]; [19],1 h
same,AUC(0-t),"[2]; 35 mg, intranasal 35 mg (2.50 mg/cm^2) once daily, Day 6, read-out: Composite AUC0-24 h",5.4 µM·h
same,half-life,"[2]; 35 mg, intranasal 35 mg (2.50 mg/cm^2) once daily, Day 6, read-out: Mean T1/2 (converted)",6 h
same,concentration at 24 h,"[2]; 5 mg, intranasal 5 mg (0.357 mg/cm^2) once daily, Day 0, read-out: Mean C24 h",22 nM
same,concentration at 24 h,"[2]; 5 mg, intranasal 5 mg (0.357 mg/cm^2) once daily, Day 6, read-out: Mean C24 h",15 nM
same,concentration at 24 h,"[2]; 15 mg, intranasal 15 mg (1.07 mg/cm^2) once daily, Day 0, read-out: Mean C24 h",17 nM
same,concentration at 24 h,"[2]; 15 mg, intranasal 15 mg (1.07 mg/cm^2) once daily, Day 6, read-out: Mean C24 h",59 nM
same,concentration at 24 h,"[2]; 35 mg, intranasal 35 mg (2.50 mg/cm^2) once daily, Day 0, read-out: Mean C24 h",120 nM
same,concentration at 24 h,"[2]; 35 mg, intranasal 35 mg (2.50 mg/cm^2) once daily, Day 6, read-out: Mean C24 h",36 nM
same,solubility,"[3]; Partial titration of Compound I with HCl, pH = 8.5, 25 C",105000 µg/mL
same,solubility,"[3]; aqueous buffer, thermodynamic from solid, Carbonate buffer, pH = 10.4, 25 C, read-out: Solubility",200 µg/mL
same,solubility,"[3]; aqueous buffer, thermodynamic from solid, Ethanolamine buffer, pH = 9.4, 25 C, read-out: Solubility",500 µg/mL
same,solubility,"[3]; aqueous media, aqueous buffer, thermodynamic from solid, pH < 8.5, 25 C, read-out: Solubility",> 300000 µg/mL
